# Assay results as given in patent publication US20130090371A1, “METHODS AND COMPOSITIONS FOR INHIBITION OF BETA2-ADRENERGIC RECEPTOR DEGRADATION” (PRESIDENT AND FELLOWS OF HARVARD COLLEGE, priority 2010, published 2013).
# d = 2'-deoxy (DNA); r = 2'-OH (RNA)
# What was measured:
# [1] = system: β2AR; experiment: Immunoblot of β2AR protein in human airway smooth muscle (HASM) cells
# Protocol: Error bars represented the standard deviations; Student t-test * p<0.05, n=2. […] Indirect Immunofluorescence staining of β2AR and phase contract images are shown.
# Three days after the inhibitor treatment cell lysates were collected and analyzed by immunoblotting. Three repeats were done with similar results.
# Immunoblot analysis. 48 h post DNA transfection, cells were wash with PBS and lysed with NP-40 lysing buffer (50 mM Tris-HCl pH7.5, 150 mM NaCl, 0.5% Nonidet P-40) containing protease inhibitor cocktail (Roche). Protein samples were separated on NuPAGE 10% Bis-Tris gels (Invitrogen) and transferred to nitrocellulose membranes (Bio-Rad). Immunoblot signals were developed using SuperSignal West Pico Chemiluminescent Substrate (Pierce, Rockford, Ill., USA) and quantified by a Luminescence Imager or exposed to X-ray films.
# [2] = system: β2AR; experiment: Immunoblot of exogenously expressed β2AR in 293β2AR cells; type: cell-based, human; conditions: at a higher concentration; three days
# Excerpt: Three repeats were done with similar results.
# [3] = system: latrophilin 2; experiment: Quantitative real-time PCR of latrophilin 2 expression; type: cell-based, human; conditions: vs NT siRNA
# Excerpt: FIG. 11A-11C show inhibition of an EST RNA (AA496068) increases latrophilin 2 expression and decreases β2-AR degradation. FIG. 11A show the genomic locus that is targeted by AA496068 EST shRNA (SEQ ID NO: 2). The shRNA corresponds to sequences in an EST AA496068, which is about 150 kb upstream of the latrophilin 2 gene, and binding of this shRNA […] (SEQ ID NO: 2) activates latrophilin 2 and decreases β2-AR degradation. Thus SEQ ID NO: 2 serves as an activator or agonist of lactrophinin 2. The whole region covering the EST and latrophilin 2 is also annotated as KIAA0786. […] Cells were then labeled with anti-FLAG-FITC and analyzed by flow cytometry. FIG. 11B are histograms showing the distribution of cells treated with vehicle (upper panel) or ISO (lower panel) are shown above. […] Total RNA was isolated from cells transfected with NT or AA496068 EST siRNAs. Latrophilin 2 and AA496068 EST expression was determined by reverse transcription using random hexamers followed by quantitative real-time PCR.
# [4] = system: β2AR; experiment: qRT-PCR of β2AR mRNA in HASM cells; type: cell-based, human; conditions: AAEST siRNA
# [5] = system: β2AR; experiment: Baseline β2AR expression in cells after AAEST knockdown; type: cell-based
# [6] = system: surface β2-AR; experiment: Surface β2-AR by FACS (α-Flag FITC) after AAEST siRNA; type: cell-based, human; conditions: text: HASM cells; legend FIG. 16A: HEK293 cells
# [7] = biological target: T1, wild-type β2AR (Homo sapiens, UniProt P07550); experiment: Immunoblot of agonist-induced degradation of wild-type β2AR; type: cell-based; conditions: siRNA-transfected cells
# T1 construct: expressed in transfected cells; host or cells: HEK293 (293.β2AR^WT)
# Protocol: β2AR ubiquitination and degradation assays. Cells expressing PAR or β2ARt were subjected to 10 μM ISO (Sigma) stimulation, lysed in 0.5% NP-40 lysis buffer and immunoblotted with anti-FLAG-HRP (Sigma). For β2AR ubiquitination, β2ARt or wt-β2AR expressing cells were first incubated with 10 μM alprenolol antagonist (Sigma) for 15 min (to reduce constitutive background ubiquitination), stimulated with 10 μM ISO and lysed in buffer supplemented with 10 mM N-ethylmaleimide (NEM; Sigma) to inhibit deubiquitinase activity. Anti-FLAG EZview beads (Sigma) used for the IP were subjected to three 10 min washes with lysis buffer and resuspended in 50 μl 2βLDS sample buffer (Invitrogen) containing 10% β-mercaptoethanol (Sigma) and analyzed by immunoblotting.
# [8] = biological target: T1, wild-type β2AR; experiment: β2AR ubiquitination assay, wild-type β2AR cells; type: cell-based; conditions: ISO stimulation
# Protocol: (§1) β2AR ubiquitination and degradation assays. Cells expressing […] or β2ARt were subjected to 10 μM ISO (Sigma) stimulation, lysed in 0.5% NP-40 lysis buffer and immunoblotted with anti-FLAG-HRP (Sigma). For β2AR ubiquitination, β2ARt or wt-β2AR expressing cells were first incubated with 10 μM alprenolol antagonist (Sigma) for 15 min (to reduce constitutive background ubiquitination), stimulated with 10 μM ISO and lysed in buffer supplemented with 10 mM N-ethylmaleimide (NEM; Sigma) to inhibit deubiquitinase activity. Anti-FLAG EZview beads (Sigma) used for the IP were subjected to three 10 min washes with lysis buffer and resuspended in 50 μl 2βLDS sample buffer (Invitrogen) containing 10% β-mercaptoethanol (Sigma) and analyzed by immunoblotting.
# [9] = system: ARRDC3; experiment: ARRDC3 protein knockdown by siRNA; type: cell-based, human
# [10] = biological target: T2, β2ARt (Homo sapiens, UniProt P07550); experiment: β2AR ubiquitination assay, β2ARt cells; type: cell-based; conditions: ISO stimulation
# T2 construct: a distally truncated form (after residue 385) of β2AR (β2ARt); expressed in transfected cells; host or cells: HEK293 (293.β2AR*)
# Protocol: as §1
# [11] = biological target: T3, NEDD4/β2AR (Homo sapiens, UniProt P07550); experiment: IP assay of NEDD4/β2AR association in β2ARt-expressing cells; type: cell-based; conditions: presence or absence of ISO stimulation
# T3 construct: a distally truncated form (after residue 385) of β2AR (β2ARt); expressed in transfected cells; host or cells: HEK293 cells stably expressing FLAG-β2ARt
# Protocol: FIGS. 10A-10B show ARRDC3 is an essential adaptor for β2AR ubiquitination. […] Cells stably expressing FLAG-β2ARt were transfected with siRNAs targeting nothing (scrambled), ARRDC3, or β-arrestin-2 and then subjected to a treatment with vehicle or ISO. Anti-FLAG immunoprecipitates from the corresponding lysates and whole cell extracts (WCE) were analyzed by immunoblotting with the indicated antibodies. FIG. 10B is a schematic model of ARRDC3 functioning as an adaptor for β2AR ubiquitination.
# Co-immunoprecipitations (co-IP). 293T cells were transfected using Fugene 6 (Roche) or Turbofect (Fermentas). 48 h later, cells were lysed, pre-cleared with protein A agarose, and HA- or FLAG-tagged proteins were IP-ed using anti-HA EZview or anti-FLAG EZview beads. Washed beads were resuspended in sample buffer and analyzed by immunoblotting. Where noted, cross-linking was achieved by incubation for 40 min with 2 mM crosslinker dithio-bismaleimidoethane (DTME; Pierce) in PBS containing 10 mM Hepes (pH 7.5), as previously described (Shenoy et al, 2008) with minor modifications. IP complexes were washed three times consecutively in lysis, high salt, and low salt buffers then resuspended in sample buffer before immunoblotting.
# [12] = biological target: T2, β2ARt; experiment: Immunoblot of agonist-induced β2AR degradation in 293β2AR* / β2ARt cells; type: cell-based
# Protocol: as §1
compound,measurement,setting,value
O=C(O)c1ccc2c3c1cccc3c(=O)n1c3ccccc3nc21 [STO-609],β2AR protein level,"[1]; at as low as 2 μM, three days",an increase in β2AR
same,β2AR protein level,[2],increased exogenously expressed β2AR protein
"AA496068 EST siRNAs: siRNA having the sequence UAAUAUUUAAUGAGGCGGCCU (SEQ ID NO: 27) (listed as RNA, chemistry not given here)",latrophilin 2 expression,[3],increases the expression of latrophilin 2
"AAEST siRNA: 5′ UAAUAUUUAAUGAGGCGGCCUdTdT (SEQ ID NO: 34) and/or 5′ AGGCCGCCUCAUUAAAUAUUAdTdT (SEQ ID NO: 35) (chain 1 UAAUAUUUAAUGAGGCGGCCUTT; chain 2 AGGCCGCCUCAUUAAAUAUUATT; sugars from the 5' end r21 d2, backbone not given here)",total β2-AR protein expression,"[1]; western blot, FIG. 16B",decreased total β2-AR protein expression
same,mRNA expression level of β2-adrenergic receptor,[4],did not decrease the mRNA expression level
same,baseline β2AR expression,[5],an increase in baseline β2AR expression
same,presence of β2-AR on the cell surface,[6],decreases the presence of β2-AR on the surface
ARRDC3 siRNA: siRNA having the sequence GAACUGCUCUUCCCGAAUG (SEQ ID NO: 25) (chemistry not given here),ISO-induced degradation of wild-type β2AR,[7],blocked
same,reduction in ubiquitinated β2AR compared to ISO-treated control,[8],−30%
same,knockdown of ARRDC3 protein expression,[9],> 75%
same,reduction in normalized amount of ubiquitinated β2AR compared to ISO-treated control,[10],−70%
same,association of NEDD4 with β2AR,[11],completely abrogated
same,level of un-degraded receptor after ISO vs scrambled control siRNA,[12]; ISO-induced degradation of β2ARt,about 6 fold
same,increase in basal level of the receptor,[12]; prior to ISO stimulation,< 2 fold
